Measurements taken from US10208074B2, “Pyrazole compounds and method for making and using the compounds” (Rigel Pharmaceuticals, Inc., priority 2015, dated 2019).
Structures can show the parent of a compound that is named as a salt.

Tested on: IL-23p19
Test: LPS induced IL23p19 in THP-1 cells (with IFNγ primed) assay
Format: cell-based, Human
Settings: Homo sapiens, THP-1, 18 h, THP-1 cells, IFNγ primed, LPS 1 ug/mL, 18 hours, 10 pt; read-out: IL23-p19 ELISA, THP1-IFNy, LPS, 10 pt EC50
From the text: LPS Induced IL23p19 in THP-1 Cells (with IFNγ Primed) Assay
THP-1 Cells (ATCC, Cat#TIB-202), Dimethyl Sulfoxide (DMSO) (Sigma-Aldrich, Cat#D2650), RPMI 1640 (Cellgro, Cat#10-040-CM), Fetal Bovine Serum (Sigma, Cat#F4135), Albumin From Bovine Serum (BSA) (Sigma-Aldrich, Cat#A7906), LPS (Serotype K-235, Sigma, Product Number L 2143), IFNγ (Peprotech, Cat#300-02) Capture antibody: Human IL-23p19 ELISA (e-Bioscience, Cat. #14-7238-85), Detection antibody: Primary Mouse Biotinylated anti-human IL-12(p40/p70) (e-Bioscience, Cat. #13-7129-85), Secondary HRP-conjugated Streptavidin (R&D Systems, Cat#DY998), 1×PBST Washing Buffer (PBS-Tween tablet) (VWR International, Cat#80058-558), ELISA Blocking Buffer (PBS with 1% BSA), ELISA Dilution Buffer (PBS with 1% BSA), 384 Well Flat-Bottom, MaxiSorp Black Immuno Plates (Thermo Scientific, Cat#12-565-346), 384 Well Flat-Bottom, White Tissue Culture Plates (Thermo Scientific, Cat#12-565-343), Super Signal ELISA Pico Chemiluminescent Substrate (Thermo Scientific, Cat#37070), Cell Titer Glo reagent (Promega, Cat#G7573), Positive control, IKK2VI inhibitor (Calbiochem, Cat#401483), AquaMax 4000 plate washer (Molecular Devices), Luminometer, Wallac Victor2 1420 Multilabel Counter.
On day 1, 50K/well THP-1 cells were seeded and primed with IFNγ (50 ng/mL) in 384-well plates for about 18 hours in RPMI media with 10% FBS. On day 2, the compound was serially diluted in DMSO from 5 mM in 3-fold dilutions, and then diluted 1:125 in RPMI media with 10% FBS. 50 μL/well 2× compound was added to 50 μL/well THP-1 cells (with IFNγ primed) in duplicate in 384 well tissue culture plates. The cells were pre-incubated with compound for 1 hour at 37° C., 5% CO2 before addition of 10 μL/well 11×LPS to give a final concentration of 1 ug/mL LPS. Day 3, after stimulation for 18 hours at 37° C., 5% CO2, the assay plate was centrifuged and 70 μL/well supernatant was harvested. IL-23p19 protein in 70 μL/well of supernatant was measured by sandwich ELISA, and 25 μl/well Cell Titer Glo reagent was added to the remaining cells to measure compound toxicity.
Maxisorp immuno ELISA plates were pre-coated with 25 μL/well of anti-IL-23p19 capture antibody (2.5 ug/mL) in PBS overnight at room temperature. After washing with 1× PBST, the plates were blocked using 100 μL/well of 1% BSA in PBS for 2 hours at room temperature. The plates were washed three times with 1×PBST and 70 μL/well supernatant were added. The plates were incubated at room temperature for 2 hours with shaking and washed three times with 1×PBST. 25 μL/well of biotin labeled anti-IL-12(p40/p70) detection antibody (100 ng/mL) in PBS with 1% BSA was added and the plates were incubated at room temperature for 2 hours with shaking. After washing three times with 1×PBST, 25 μL/well of streptavidin-HRP (1:200) in PBS with 1% BSA was added and the plates were incubated at room temperature for 20 minutes with shaking. The plates were washed three times with 1× PBST and 25 μL/well of Super Signal ELISA Pico Chemiluminescent Substrate were added. The plates were read with a luminometer, and the chemiluminescence values were entered into Athena (Rigel) for curve fitting, EC50 calculation, and database storage.

SMILES | EC50 [µM]
CCO[C@H]1C[C@@H](n2cc(NC(=O)c3csc(-c4cn[nH]c4)n3)c(C(F)(F)F)n2)C1 [II-62, N-(1-((1s,3s)-3-ethoxycyclobutyl)-3-(trifluoromethyl)-1H-pyrazol-4-yl)-2-(1H-pyrazol-4-yl)thiazole-4-carboxamide] | 6.48
O=C(Nc1cn(C(F)F)nc1-c1ccccn1)c1csc(-c2cnn(C(F)F)c2)n1 [II-98, 2-(1-(difluoromethyl)-1H-pyrazol-4-yl)-N-(1-(difluoromethyl)-3-(pyridin-2-yl)-1H-pyrazol-4-yl)thiazole-4-carboxamide] | 24.6
COc1ccc(Cn2cc(-c3nc(C(=O)Nc4cn(CCF)nc4-c4ccccn4)cs3)cn2)cc1 [II-52, N-(1-(2-fluoroethyl)-3-(pyridin-2-yl)-1H-pyrazol-4-yl)-2-(1-(4-methoxybenzyl)-1H-pyrazol-4-yl)thiazole-4-carboxamide] | 6.16
O=C(Nc1cn(C2CCC2)nc1-c1ccccn1)c1ccc(-c2cnn(C3CCC3)c2)o1 [Compound I-122, 5-(1-cyclobutyl-1H-pyrazol-4-yl)-N-(1-cyclobutyl-3-(pyridin-2-yl)-1H-pyrazol-4-yl)furan-2-carboxamide 2,2,2-trifluoroacetate] | 3.76
Cn1cc(NC(=O)c2coc(-c3cnn(CC4CC4)c3)n2)c(-c2ccccn2)n1 [III-1, 2-(1-(cyclopropylmethyl)-1H-pyrazol-4-yl)-N-(1-methyl-3-(pyridin-2-yl)-1H-pyrazol-4-yl)oxazole-4-carboxamide] | 20.3
CCO[C@H]1C[C@@H](n2cc3c(n2)CCCN3C(=O)c2csc(-c3cn[nH]c3)n2)C1 [II-67, (2-(1H-pyrazol-4-yl)thiazol-4-yl)(2-((1s,3s)-3-ethoxycyclobutyl)-2,5,6,7-tetrahydro-4H-pyrazolo[4,3-b]pyridin-4-yl)methanone] | 26.2
COc1ccc(Cn2cc(-c3nc(C(=O)Nc4cn(CC(O)C(F)(F)F)nc4-c4ccccn4)cs3)cn2)cc1 (stereo not shown) [II-103, 2-(1-(4-methoxybenzyl)-1H-pyrazol-4-yl)-N-(3-(pyridin-2-yl)-1-(3,3,3-trifluoro-2-hydroxypropyl)-1H-pyrazol-4-yl)thiazole-4-carboxamide] | 8.08
Cn1cc(NC(=O)c2csc(-c3cn[nH]c3)n2)c(C#N)n1 [II-137, N-(3-cyano-1-methyl-1H-pyrazol-4-yl)-2-(1H-pyrazol-4-yl)thiazole-4-carboxamide] | 0.206
COCCOCCn1cc(-c2ccc(C(=O)Nc3cn(CCOCCOC)nc3-c3ccccn3)o2)cn1 [Compound I-52, 5-(1-(2-(2-methoxyethoxy)ethyl)-1H-pyrazol-4-yl)-N-(1-(2-(2-methoxyethoxy)ethyl)-3-(pyridin-2-yl)-1H-pyrazol-4-yl)furan-2-carboxamide formate] | 1.38
O=C(Nc1cn(C(=O)N2CCOCC2)nc1-c1ccccn1)c1csc(-c2cn[nH]c2)n1 [II-129, N-(1-(morpholine-4-carbonyl)-3-(pyridin-2-yl)-1H-pyrazol-4-yl)-2-(1H-pyrazol-4-yl)thiazole-4-carboxamide] | 0.377
COc1ccc(Cn2cc(-c3nc(C(=O)Nc4c[nH]nc4-c4ccccn4)cs3)cn2)cc1 [II-53, 2-(1-(4-methoxybenzyl)-1H-pyrazol-4-yl)-N-(3-(pyridin-2-yl)-1H-pyrazol-4-yl)thiazole-4-carboxamide] | 24.1
CCCOCn1cc(NC(=O)c2ccc(-c3c[nH]c([N+](=O)[O-])c3)o2)c(-c2ccccn2)n1 [Compound I-24, 5-(5-nitro-1H-pyrrol-3-yl)-N-(1-(propoxymethyl)-3-(pyridin-2-yl)-1H-pyrazol-4-yl)furan-2-carboxamide] | 4.22
CCO[C@H]1C[C@@H](n2cc(NC(=O)c3csc(-c4c(C)n[nH]c4C)n3)c(-c3ccccn3)n2)C1 [II-93, 2-(3,5-dimethyl-1H-pyrazol-4-yl)-N-(1-((1,3-cis)-3-ethoxycyclobutyl)-3-(pyridin-2-yl)-1H-pyrazol-4-yl)thiazole-4-carboxamide] | 0.109
COc1ccc(Cn2cc(-c3nc(C(=O)Nc4cn(C(=O)N(C)C)nc4-c4ccccn4)cs3)cn2)cc1 [II-105, N-(1-(dimethylcarbamoyl)-3-(pyridin-2-yl)-1H-pyrazol-4-yl)-2-(1-(4-methoxybenzyl)-1H-pyrazol-4-yl)thiazole-4-carboxamide] | 5.55
CC1(O)CC(n2cc(NC(=O)c3csc(-c4cn[nH]c4)n3)c(-c3ccccn3)n2)C1 (stereo not shown) [II-87, N-(1-(3-hydroxy-3-methylcyclobutyl)-3-(pyridin-2-yl)-1H-pyrazol-4-yl)-2-(1H-pyrazol-4-yl)thiazole-4-carboxamide] | 0.615

Same assay, conditions: Homo sapiens, THP-1, 18 h, read-out: IL23-p19 ELISA, THP1-IFNy, LPS, 10 pt EC50 (μM)

SMILES | EC50 [µM]
CCOP(=O)(Cn1cc(-c2nc(C(=O)Nc3cn(C)nc3-c3ccccn3)cs2)cn1)OCC [II-7, diethyl ((4-(4-((1-methyl-3-(pyridin-2-yl)-1H-pyrazol-4-yl)carbamoyl)thiazol-2-yl)-1H-pyrazol-1-yl)methyl)phosphonate] | 6.09
